# In patent publication US20150030566A1, “ANTIMICROBIAL PEPTIDE COMPOSITIONS FOR PLANTS” (Stellenbosch University, priority 2012, published 2015):
# Residues, ends and D or L forms follow the SMILES beside them.
# Legend:
# [1] = tested on: fungal pathogens; test: Sterilization of field-gathered grapevine material for plant cultures; format: in vivo; conditions: in the washing step or in the growth media; without a major detrimental effect to the plant material; results not shown
# Description: The Trc mix and GS were also tested for use in the sterilization of field-gathered grapevine material for use in plant cultures.
# [2] = tested on: Fusarium solani; test: Agar (gel) assay; format: cell-based
# Description: (§1) Microdilution broth and agar assays were used to assess the antifungal activity of the cyclic decapeptides in liquid media and on solid (gel) media, respectively.
# (§2) The antibacterial activity of the tyrocidines and gramicidin S against all the bacteria tested was determined by the methods described by Du Toit E A and Rautenbach M (2000) J. Microbiol. Methods, 42, 159-165. The antifungal activity of the tyrocidines against all the […] tested was determined by the methods described by Troskie A M, Vlok N M and Rautenbach M (2012) J. Microbiol. Methods, 91, 551-558.
# [3] = tested on: Bacillus subtilis OKB120; test: Microdilution broth assay; format: cell-based; design: unit not given beside the values
# Description: as §1, §2
# [4] = tested on: Bacillus subtilis 168; test: Microdilution broth assay; format: cell-based; design: unit not given beside the values
# Description: as §1, §2
# [5] = tested on: Escherichia coli HB101; test: Microdilution broth assay; format: cell-based; design: unit not given beside the values
# Description: as §1, §2
# [6] = tested on: Listeria monocytogenes B73-MR1; test: Microdilution broth assay; format: cell-based; design: unit not given beside the values
# Description: as §1, §2
# [7] = tested on: Talaromyces mineoluteus (peach isolate); test: Microdilution broth assay; format: cell-based; design: unit not given beside the values
# Description: as §1, §2
# [8] = tested on: Bacillus subtilis OKB105; test: Microdilution broth assay; format: cell-based; design: unit not given beside the values
# Description: as §1, §2
# [9] = tested on: Bacillus spizizenii ATCC 6633; test: Microdilution broth assay; format: cell-based; design: unit not given beside the values
# Description: as §1, §2
# [10] = tested on: Listeria monocytogenes B73; test: Microdilution broth assay; format: cell-based; design: unit not given beside the values
# Description: as §1, §2
# [11] = tested on: Trichoderma atroviride (wood isolate); test: Microdilution broth assay; format: cell-based; design: unit not given beside the values
# Description: as §1, §2
# [12] = tested on: Cylindrocarpon liriodendri; test: Microdilution broth assay; format: cell-based; design: unit not given beside the values
# Description: as §1, §2
# [13] = tested on: Bacillus subtilis ATCC21332; test: Microdilution broth assay; format: cell-based; design: unit not given beside the values
# Description: as §1, §2
# [14] = tested on: Talaromyces ramulosus (peach isolate); test: Microdilution broth assay; format: cell-based; design: unit not given beside the values
# Description: as §1, §2
# [15] = tested on: Micrococcus luteus NCTG 8340; test: Microdilution broth assay; format: cell-based; design: unit not given beside the values
# Description: as §1, §2
# [16] = tested on: African daisy (Gerbera hybrid); test: Cut flower trials, Gerbera; format: in vivo; conditions: GS at 35 mg/L alone or in the GS+Trc mix
# Description: Water uptake was initially better than observed for a commercial product for cut-flower preservation (FIG. 4A).
# Cut flower trials on mini hybrids of the African daisy (Gerbera hybrid) and blue larkspur (Delphinium hybrid) were conducted on 3-day old flowers. Flowers were prepared by cutting 3-5 cm of each stem and each placed separately in a measuring flask with 100 mL containing either no additive, Trc mix (35 mg/L for Gerbera and 25 mg/l for Delphinium), GS (35 mg/L for Gerbera and 25 mg/L for Delphinium), Trc mix+GS (combined 70 mg/L for Gerbera and combined 50 mg/L for Delphinium) or commercial additive for flower preservation. Flowers (6-12 per trial) were kept in a room with both natural and fluorescent lighting (16 hours light/day) at 22±1° C. The volume of water was monitored every 24 hours and noted for each flower.
# Flower condition was rated from 0 to 5, with 0=dead, 1=flower petals dehydrated, closed and drooping, 2=flower still partially open but dehydrated and drooping, 3=flower starts drooping, petals soft, 4=some petals becoming soft, flower still in good condition and 5=flower is in pristine condition with taught petals and stem/leaves.
# [17] = tested on: P. digitatum; test: Preliminary trials on oranges, wound infections; format: in vivo; conditions: 50 mg/L (50 ppm)
# Description: Promising results in preliminarily trials on oranges have also been observed, with 50% and 80% less wound infections by P. digitatum using 50 mg/L (50 ppm) Trc mix and GS, respectively.
# [18] = tested on: Penicillium digitatum (citrus isolate); test: Agar assay; format: cell-based
# Description: as §1, §2
# [19] = tested on: Phaeoacremonium aleophilum; test: Agar assay; format: cell-based
# Description: as §1, §2
smiles,measurement,setting,value
"CC(C)C[C@@H]1NC(=O)[C@H](CCCN)NC(=O)[C@H](C(C)C)NC(=O)C2CCCN2C(=O)[C@@H](Cc2ccccc2)NC(=O)[C@H](CC(C)C)NC(=O)[C@H](CCCN)NC(=O)[C@H](C(C)C)NC(=O)C2CCCN2C(=O)[C@@H](Cc2ccccc2)NC1=O (stereo partly drawn) [GS, Cyclo-(VOLfPVOLfP)] (HELM PEPTIDE1{L.[dF].[O=C(C1CCCN1[*:1])[*:2]].V.[Orn].L.[dF].[O=C(C1CCCN1[*:1])[*:2]].V.[Orn]}$PEPTIDE1,PEPTIDE1,1:R1-10:R2$$$V2.0)",concentration sufficient to eliminate fungal pathogens,[1],20 mg/L
same,MIC + SEM,"[2]; Agar, Fusarium solani",5.5 ± 1.3
same,IC50 ± SEM,[2]; F. solani on PDA,4.9 ± 1.2 µg/mL
same,MIC ± SEM,[2]; F. solani on PDA,6.3 ± 1.5 µg/mL
same,IC50 ± SEM,[2]; F. solani on YTSA,9.6 ± 0.5 µg/mL
same,MIC ± SEM,[2]; F. solani on YTSA,19.9 ± 1.2 µg/mL
same,MIC + SEM,[3],8-14
same,MIC + SEM,[4],8-14
same,MIC + SEM,[5],44
same,MIC + SEM,[6],5.6 ± 0.1
same,MIC + SEM,[7],4.2 ± 0.2
same,MIC + SEM,[8],8-14
same,MIC + SEM,[9],2.6 ± 0.2
same,MIC + SEM,[10],9.9 ± 0.2
same,MIC + SEM,[11],4.8 ± 0.3
same,MIC + SEM,[12],2.3 ± 0.1
same,MIC + SEM,[13],8-14
same,MIC + SEM,[14],3.0 ± 0.1
same,MIC + SEM,[15],28 ± 0.4
same,benefit to flower survival,[16],did not benefit flower survival
same,phytotoxicity,[16],may have led to some phytotoxicity
same,less wound infections by P. digitatum,[17],80%
same,MIC + SEM,[18],<20
same,MIC + SEM,[19],<10
